The source of these data is paper PMC8409973, “Synthesis, antiproliferative and antitrypanosomal activities, and DNA binding of novel 6-amidino-2-arylbenzothiazoles” (Journal of Enzyme Inhibition and Medicinal Chemistry, 2021).

Entries after “also recorded” stand apart in the source; their conditions may differ. Read-outs that look alike come from different tables or passages of the source.

Data set [1] deals with CFPAC-1 (pancreatic adenocarcinoma). The experiment in a line: Proliferation assay (MTT, 72 h) on CFPAC-1. Format: cell-based. To be noted: Homo sapiens, CFPAC-1, 72 h. Here is the method:
(§1) Human cell lines SW620 (colorectal adenocarcinoma, metastatic), MCF-7 (human breast adenocarcinoma), CFPAC-1 (pancreatic adenocarcinoma), HeLa (cervical carcinoma), and HFF-1 (human foreskin fibroblasts) were obtained from the American Type Culture Collection (ATCC). Cells were cultured in a humidified atmosphere at 37 °C with 5% CO2. As a growth medium, Dulbecco’s modified Eagle medium (DMEM) was used with the addition of foetal bovine serum (10%), L-glutamine (2 mM), and antibiotics: streptomycin ([…]) and penicillin (100 U/ml).
(§2) Cells were seeded onto 96-well microtiter plates at a seeding density of 3000 cells/well for carcinoma cell lines, and 5000 cells/well for normal human fibroblasts. The next day, cells were treated with test agents at five different concentrations (0.01–100 µM) and further incubated for 72 h. […] 5-Fluorouracil (5-FU, 0.384 M fluorouracilum, Pliva 500 mg/10 ml) dissolved in physiological solution was used as a positive control. Following 72 h incubation, the MTT assay was performed and measured absorbances were transformed into a percentage of cell growth as described previously. Results were obtained from three independent experiments. IC50 values were calculated using linear regression analysis (FORECAST option taking into account the concentration range of two experimental points above and below IC50).

Data set [2] concerns MCF-7 (human breast adenocarcinoma). In words: Proliferation assay (MTT, 72 h) on MCF-7. To be noted: MCF7, MCF-7, 72 h. The class given is cell-based. Here is the method:
as §1, §2

Data set [3] concerns SW620 (colorectal adenocarcinoma, metastatic). The experiment in a line: Proliferation assay (MTT, 72 h) on SW620. The class given is cell-based. As to conditions: Homo sapiens, SW-620, SW620, 72 h. Here is the method:
as §1, §2

The test system of data set [4] is WI-38 fibroblast cell line. In words: Growth inhibition of WI-38 fibroblasts (control substance). The class given is cell-based. As to conditions: Homo sapiens; WI-38 fibroblast cell line (footnote c).
Data set [5] concerns HeLa (cervical carcinoma). In words: Proliferation assay (MTT, 72 h) on HeLa. To be noted: Homo sapiens. Format: cell-based. As for the experimental part:
as §1, §2

In data set [6] the test system is calf thymus ctDNA. The experiment in a line: Fluorimetric titration with ctDNA. Format: binding. To be noted: for I/I0: fluorescence intensity of complex / starting intensity, ctDNA, pH 7.0; for LogKs: fluorescence titration with ctDNA, Scatchard, fixed n = 0.6, pH 7.0, sodium cacodylate I = 0.05 mol dm−3. Here is the method: The calf thymus ctDNA was additionally sonicated and filtered through a […]. Polynucleotide concentration was determined spectroscopically[50]^,[51] as the concentration of phosphates. Fluorescence spectra were recorded on a Varian Cary Eclipse spectrophotometer at 25 °C using appropriate 1 cm path quartz cuvettes. […] In fluorimetric experiments, an excitation wavelength of λexc ≥300 nm was used to avoid the inner filter effect caused due to increasing absorbance of the polynucleotide. Emissions were determined in the range λem = 350–650 nm. Values for Ks were obtained by processing titration data using the Scatchard equation[52].

Data set [7] has as its system ctDNA. In words: Thermal denaturation of ctDNA. To be noted: r = [compound]/[polynucleotide] = 0.3, pH 7.0; error ±0.5 °C. Format: binding, calf. Here is the method: (§3) These solutions were used for measurements in an aqueous buffer (pH = 7, sodium cacodylate buffer, I = 0.05 mol dm^−3). Polynucleotides were purchased as noted: poly (dAdT)2 and calf thymus ctDNA (Sigma-Aldrich). Polynucleotides were dissolved in Na-cacodylate buffer, I = 0.05 mol dm^−3, pH = 7. The calf thymus ctDNA was additionally sonicated and filtered through a […]. Polynucleotide concentration was determined spectroscopically[50]^,[51] as the concentration of phosphates.
(§4) The UV/Vis spectra were recorded on a Varian Cary 100 Bio spectrophotometer using 1 cm path quartz cuvettes. Calibration experiments were performed at 25 °C and pH = 7 (I = 0.05 mol dm^−3, sodium cacodylate buffer). Absorption maxima and corresponding molar extinction coefficients (ε) of benzothiazole derivatives are given in Table S1 (Supplementary material). Thermal melting curves for DNA and their complexes with studied compounds were determined as previously described by following the absorption change at 260 nm as a function of temperature. The absorbance of the ligands was subtracted from every curve and the absorbance scale was normalised. Tm values are the midpoints of the transition curves determined from the maximum of the first derivative and checked graphically by the tangent method. The ΔTm values were calculated by subtracting Tm of the free nucleic acid from Tm of the complex. Every ΔTm value reported here was the average of at least two measurements. The error in ΔTm is ±0.5 °C.

The subject of data set [8] is poly (dAdT)2. In words: Thermal denaturation of p(dAdT)2. The class given is binding. To be noted: r = [compound]/[polynucleotide] = 0.3, pH 7.0; error ±0.5 °C. Here is the method: as §3, §4
Data set [9] relates to Bloodstream form T. b. brucei (strain 221). In words: Antitrypanosomal screening (resazurin). The class given is cell-based. As to conditions: Trypanosoma brucei; for IC90: concentration that inhibited growth by 90%, mean ± SEM; for IC50: mean of triplicate ± SEM. Here is the method:
Resazurin (20 μl at 0.125 mg ml^−1) was added after 48 h, the plates were incubated for a further 16 h, and then read in a Spectramax plate reader, and data analysed using GraphPad Prism. Each drug was tested in triplicate.
(In general: Resazurin is reduced to fluorescent resorufin, in cell work by metabolically active cells.)

The subject of data set [10] is HFF-1 (human foreskin fibroblasts). The experiment in a line: Proliferation assay (MTT, 72 h) on normal fibroblasts HFF-1. Format: cell-based. To be noted: HFF-1 normal fibroblasts. As for the experimental part: as §1, §2
The test system of data set [11] is ctDNA. In words: CD titration of ctDNA. As to conditions: for induced CD (ICD) signal with ctDNA: CD titration, pH 7.0, λ > 300 nm; for binding mode to ctDNA: concluded from ICD, ΔTm and binding constants. The class given is binding, calf. As for the experimental part: as §3
CD spectra were recorded on a JASCO J815 spectrophotometer in 1 cm path quartz cuvettes. CD parameters: range = 500–220 nm, data pitch = 2, standard sensitivity, scanning speed = 200 nm/min, accumulation = 3–5. Titrations were performed at 25 °C and pH = 7 (I = 0.05 mol dm^−3, sodium cacodylate buffer). CD experiments were done by adding portions of the compound stock solution into the polynucleotide solution.

The test system of data set [12] is L6 cells (a rat myoblast line). In words: L6 cell proliferation (cytotoxicity, resazurin). As to conditions: 144 h; rat myoblast L6, 6 days. The class given is cell-based.
Data set [13] has as its system Bloodstream form T. b. brucei (strain 221). To be noted: read-out: T. brucei IC50; reference drug; ref Wilkinson et al.[54]; cited from earlier work.

The IC50 is the concentration at which inhibition is half-maximal. As to `O=c1[nH]cc(F)c(=O)[nH]1` [5-FU, 5-Fluorouracil, reference compound], the IC50 in data set [1] came out at 6450 ± 660 nM; in [2], 90 ± 10 nM; in data set [3] it was 6400 ± 220 nM; in data set [4], 940 nM; in data set [5] it was 47500 ± 1930 nM.
As usually defined, the melting point is the temperature, or range, at which the solid turns liquid. As usually defined, the IC90 is the point of the concentration-response curve where the effect stands at 90%. Molecule `CS(=O)(=O)O.c1ccc(-n2cc(COc3nc4ccc(C5=NCCN5)cc4s3)nn2)cc1` [11a, 6-(4,5-Dihydro-1H-imidazol-3-ium-2-yl)-2-[(1-phenyl-1H-1,2,3-triazol-4-yl)methoxy] benzothiazole methanesulfonate] had a melting point of 270 to 274 °C. In data set [1], this molecule gave an IC50 of 450 ± 10 nM. This molecule yielded an IC50 in data set [2] of 490 ± 10 nM. The same molecule returned an IC50 in data set [3] of 460 ± 30 nM. In [6], this molecule yielded an I/I0 of 0.18 and a LogKs of 6.8. In [7], the “ΔTm ctDNA” value is 2.1 °C. Also, the “ΔTm p(dAdT)2” value in [8] was found to be 4.1 °C. Moreover, in data set [9], it took 280 ± 30 nM to reach the 90% level (IC90) and it took 230 ± 20 nM to reach half-maximal inhibition (IC50). This molecule had an IC50 in [5] of 570 ± 190 nM. Further, the concentration for half-maximal inhibition (IC50) in data set [10] worked out at 260 ± 20 nM. In data set [11], the “induced CD (ICD) signal with ctDNA” value is “bisignate signal with maxima at 317 and 360 nm”; the “binding mode to ctDNA” value is recorded as “dimer within the minor groove; also recorded: minor groove binding”. For the same molecule, in data set [12], the IC50 was < 0.2 µM.
On to `CS(=O)(=O)O.Clc1ccc(-n2cc(COc3nc4ccc(C5=NCCN5)cc4s3)nn2)cc1` [11b, 6-(4,5-Dihydro-1H-imidazol-3-ium-2-yl)-2-{[1-(4-chlorophenyl)-1H-1,2,3-triazol-4-yl]methoxy}benzothiazole methanesulfonate], for which the melting point lay within 263 to 266 °C. Besides, the IC50 in [1] stood at 3090 ± 190 nM. In data set [2], this molecule showed an IC50 of 3120 ± 360 nM. This molecule also displayed an IC50 in data set [3] of 2840 ± 190 nM. Besides, in data set [6], the I/I0 is listed as 0.21 and the LogKs turned out to be 6.6. Further, the “ΔTm ctDNA” value in [7] was found to be 1.2 °C. Also, the “ΔTm p(dAdT)2” value in data set [8] came out at 1.1 °C. In [9], this molecule came in with an IC90 of 120 ± 30 nM and an IC50 of 90 ± 20 nM. This molecule also gave an IC50 in [5] of 2610 ± 420 nM. The molecule further came in with an IC50 in [10] of 170 ± 90 nM. For the same molecule, in data set [11], the “induced CD (ICD) signal with ctDNA” value is recorded as “small negative ICD signal” and the “binding mode to ctDNA” value was “intercalation”. In addition, the IC50 in data set [12] is < 2 µM.
For the molecule `CS(=O)(=O)O.Clc1ccc(-n2cc(-c3nc4ccc(C5=NCCCN5)cc4s3)nn2)cc1` [15b, 6-(3,4,5,6-Tetrahydropyrimidin-1-ium-2-yl)-2-[1-(4-chlorophenyl)-1H-1,2,3-triazole-4-yl]benzothiazole methanesulfonate], the melting point fell in the range of 288 to 293 °C. Moreover, the 50% inhibitory concentration (IC50) in [1] came out at 710 ± 170 nM. For the same molecule, the IC50 in data set [2] was determined as 2100 ± 1090 nM. Moreover, half-maximal inhibition in [3] (IC50) was put at 890 ± 310 nM. In data set [6], this molecule had an I/I0 of 0.35 and a LogKs of 5.4. Further, the “ΔTm ctDNA” value in data set [7] was 0 °C. For the same molecule, the “ΔTm p(dAdT)2” value in [8] worked out at 5.4 °C. For the same molecule, in [9], the IC90 is 3840 ± 650 nM and the midpoint of inhibition, the IC50, lay at 1120 ± 230 nM. In data set [5], this molecule had an IC50 of 2270 ± 80 nM. The same molecule showed an IC50 in data set [10] of 740 ± 50 nM. For the same molecule, in data set [11], the “induced CD (ICD) signal with ctDNA” value is on record as “positive induced CD spectra” and the “binding mode to ctDNA” value is listed as “minor groove binding mode”. The same molecule gave a 50% inhibitory concentration (IC50) in data set [12] of 7.69 ± 0.16 µM.
Take `CC1CS(=O)(=O)CCN1/N=C/c1ccc([N+](=O)[O-])o1` (stereo not drawn) [Nifurtimox]: the half-inhibitory concentration (IC50) in [13] was 2000 ± 240 nM.
